Here are results for 3 compounds from article PMC11678873, “Ketoconazole-Fumaric Acid Pharmaceutical Cocrystal: From Formulation Design for Bioavailability Improvement to Biocompatibility Testing and Antifungal Efficacy Evaluation” (International Journal of Molecular Sciences, 2024).

Molecules are shown by their SMILES.

Data set [1] has as its system BJ dermal fibroblasts. The data set is described as follows: Oxidative damage, malondialdehyde (MDA) in cell lysates, BJ. It is filed as cell-based, human. The note with it: 6 µM, 24 h, vs untreated controls. The procedure: (§1) Oxidative stress-induced damage was assessed in vitro by malondialdehyde (MDA) measurement from cell lysates. […] Cell lysates were then prepared as described. The concentration of 6 μM was chosen to mimic the clinical scenario [47]. […] For the oxidative stress assessment, the level of malondialdehyde, a marker of lipid peroxidation, was measured from lysates of liver samples (in vivo) and cells-BJ and HepG2 (in vitro), using the Malondialdehyde Colorimetric Assay Kit (TBA Method) provided by ElabScience. Tissue sample homogenates (liver and ear) were prepared as previously described by David et al.. […] Inflammatory reaction was assessed by measurement of the tumor necrosis factor α (TNFα) in liver samples, using the rat TNFα ELISA kit from EIAAB. IL1α and β and IL6 measurement from the mice ear lysates were completed by ELISA, using the respective kits from Quantikine ELISA Immunoassay kit. Tissue homogenate samples were treated according to manufacturer's instructions; readings were performed at 450 nm with correction wavelength set at 540 nm, using an ELISA plate reader (Tecan, Grödig, Austria).

Data set [2] concerns humans. The note with it: 75 subjects, 500 mg daily for one year; cited from earlier work.
Data set [3] concerns Candida albicans. Details: method as in PMID 1799950. The note with it: ICR mice, systemic Candida albicans infections, intraperitoneal; cited from earlier work.
The test system of data set [4] is BALBc mice. The data set is described as follows: Inflammatory cytokines in treated ear tissue, ELISA (MEST). It is filed as in vivo. Here is the method: For the oxidative stress assessment, the level of malondialdehyde, a marker of lipid peroxidation, was measured from lysates of liver samples (in vivo) and cells-BJ and HepG2 (in vitro), using the Malondialdehyde Colorimetric Assay Kit (TBA Method) provided by ElabScience. Tissue sample homogenates (liver and ear) were prepared as previously described by David et al.. […] Inflammatory reaction was assessed by measurement of the tumor necrosis factor α (TNFα) in liver samples, using the rat TNFα ELISA kit from EIAAB. IL1α and β and IL6 measurement from the mice ear lysates were completed by ELISA, using the respective kits from Quantikine ELISA Immunoassay kit. Tissue homogenate samples were treated according to manufacturer’s instructions; readings were performed at 450 nm with correction wavelength set at 540 nm, using an ELISA plate reader (Tecan, Grödig, Austria).
(§2) On day one, under anesthesia, all mice received 30 µL/mouse of Freund’s complete adjuvant (Thermo Scientific™, Waltham, MA, USA), subcutaneously, in the right flank and the abdominal fur was carefully shaved, without skin abrasion. Then animals were treated with 100 µL of locally applied solution (abdominal skin) of each tested substance, in a concentration of 200 µg mL^−1 solved in ethanol 70%, daily for the first 6 days. The left ear thickness of each mouse was measured with an electronic caliper (initial value). Each mouse was treated with 50 µL/ear of the same solution on the left ear pinnae on day 7—challenge and on day 14—rechallenge. Ear thickness was measured at 24 h and 48 h after challenge and rechallenge, respectively. Then mice were humanely sacrificed, under anesthesia, and ears were collected for inflammatory markers (IL1α, IL1β and IL6) assessment and histopathology.

The subject of data set [5] is BJ dermal fibroblasts. The data set is described as follows: Cell viability, MTS assay, BJ dermal fibroblasts. It is filed as cell-based, human. As to conditions: for cell viability (effect in words): BJ, 24 h, Figure 4; for IC50: Homo sapiens, Fibroblast, BJ dermal fibroblasts, 24 h exposure, range 0.01–100 µM, MTS. Here is the method: (§3) Dermal fibroblasts (BJ-ATCC CRL-2522™) and hepatocarcinoma cells (HepG2-HB-8065, ATCC, Gaithersburg, MD, USA) were employed. Cell culture medium used was Dulbecco modified Eagle medium (DMEM) supplemented with 5% FCS-fetal calf serum, 50 µg mL^−1 gentamycin, and 5 ng mL^−1 amphotericin, all from Biochrom AG (Berlin, Germany). Medium was changed twice a week. For all experiments, a medium with 2% FCS was used. […] The final concentration of DMSO in the solutions added to the cells was lower than 0.05%, without negative viability effects. Viability was measured using the MTS assay CellTiter 96® AQueous Non-Radioactive Cell Proliferation Assay from (Promega Corporation, Madison, WI, USA), as indicated by the producer. […] Negative controls were treated with medium. Viability was measured through colorimetry, using an ELISA plate reader (Tecan, Männedorf, Switzerland) at 540 nm. All experiments were performed in triplicate. […] Inhibitory concentration (IC50) was calculated. The statistical difference between experimental groups was evaluated by nonparametric Kruskal–Wallis test, followed by Dunns post-test; the statistical significance of the treatments and time exposure within the experimental groups was tested using two-way ANOVA, followed by Bonferroni post-tests; results were considered significant for p < 0.05. […] Statistical package used for data analysis was Prism version 4.00 for Windows, GraphPad Software, San Diego, CA, USA, www.graphpad.com. For IC50 calculation of the cell viability in vitro, the AAT Bioquest was used.

Data set [6] concerns HepG2 hepatocarcinoma cells. Nature of the data set: Cell viability, MTS assay, HepG2 hepatocarcinoma cells. It is filed as cell-based, human. The note with it: for cell viability (effect in words): HepG2, 24 h, Figure 4; for IC50: Homo sapiens, HepG2 hepatocarcinoma cells, 24 h exposure, range 0.01–100 µM, MTS. Here is the method:
as §3

Data set [7] relates to BALBc mice. The data set is described as follows: Histopathology of ear sections (MEST). It is filed as in vivo. The procedure: as §2
(§4) For histopathological examination, the collected samples (liver and ears) were fixed in 10% buffered neutral formalin, embedded in paraffin, cut at 4 micrometer thickness, and stained using the Hematoxylin–Eosin (H&E) method. The slides were examined under a BX51 Olympus microscope, and images were taken with an Olympus UC 30 digital camera (Olympus, Hamburg, Germany) and processed using the Olympus Stream Basic program.

Data set [8] deals with HepG2 hepatocarcinoma cells. Nature of the data set: Oxidative damage, malondialdehyde (MDA) in cell lysates, HepG2. It is filed as cell-based, human. As to conditions: HepG2, 6 µM, 24 h, vs untreated controls. Here is the method:
as §1

Data set [9] concerns BALBc mice. The note with it: mouse, in vivo.
For data set [10] the following is noted: Wistar rats, one oral dose 20 mg kg^−1 bw.
Procedure: (§5) Regarding HPLC-MS Quantification, serum samples were processed according to the modified protocol described by Wang et al. [99]. According to this protocol, 0.5 mL of serum was extracted into 3 mL of ethyl acetate by shaking for 3 min, after which the mixture was centrifuged for 8 min at 4000 rpm. The organic layer, after being transferred to a clean tube, was evaporated at 37 °C under a stream of nitrogen. The residue was resuspended in 100 μL acetonitrile and then analyzed using a LC2010 Shimadzu (Shimadzu, Kyoto, Japan) high-performance liquid chromatograph, equipped with diode array (DAD) and quadrupole mass spectrometer (MS) detectors.
(§6) Chromatographic separation was performed on a Grace Alltima C18 column (100 × 3 mm, 3 μm), at a temperature of 40 °C, using acetonitrile-water mixture 1:1 (V/V) with 0.1% formic acid as the mobile phase. The elution was carried out isocratically with 0.4 mL min^−1 flow rate. The injected sample volume was 10 μL. The mass spectrometer parameters were the capillary voltage of 1.5 kV, desolvation temperature of 250 °C, and interface temperature of 200 °C.
Data set [11] in a line: in vivo. The note with it: female, Wistar, rat, po, 20 mg/kg.
Procedure: as §5, §6
On the set-up of data set [12]: method as in PMID 3767339. As to conditions: healthy humans, therapeutic oral dose of 200 mg KTZ; cited from earlier work.
Data set [13] relates to Wistar rats. Nature of the data set: Liver histopathology (HE stain). It is filed as in vivo. As to conditions: oral 20 mg kg^−1 bw, 30 min, 24 h, 7 days. The procedure:
Adult female Wistar rats, 3 months old (200 g body weight), were kept in standard cages type II, 5 animals/cage, in constant conditions of humidity (65%), temperature (21 °C), and day/night cycles of 12 h, fed with standard food (Cantacuzino Institute, Bucharest, Romania) and water ad libitum. […] […] Blood and liver samples were collected.
For the histopathological examination, the liver samples collected from the left lateral lobe and right medial lobe were fixed in 10% buffered neutral formalin, embedded in paraffin, cut at 4 µm thickness, and stained using the Hematoxylin–Eosin (H&E) staining method. The slides were examined under a BX51 Olympus microscope, and images were taken with an Olympus UC 30 digital camera (Olympus, Hamburg, Germany) and processed using the Olympus Stream Basic program.
as §4

[14] abbreviates: BALBc mice, ear collected at R48 h, ELISA, vs control.
[15] abbreviates: BALBc mice, after MEST, HE stain.

Regarding `O=C(O)/C=C/C(=O)O` [FUM, trans-2-butenedioic acid], in [1], the “malondialdehyde (MDA), marker for lipid peroxidation” value (shortened to “malondialdehyde (MDA), marker”) was “smaller effect”. Moreover, the “adverse effects in humans” value in data set [2] is listed as “no evidence of adverse effects”. Besides, the “survival of infected mice” value in [3] is “prolonged survival and prevented one-fifth of deaths”. Further, in [4] (mouse, in vivo), the “IL1α in treated ear tissue” value is reported as “decreased”, the “IL1β in treated ear tissue” value was “decreased” and the “IL6 in treated ear tissue” value was “increased”. Moreover, in data set [5], the “cell viability (effect in words)” value is on record as “minimal effect” and it took 7.26 µM to reach half-maximal inhibition (IC50). Besides, in data set [6], the “cell viability (effect in words)” value is given as “minimal effect” and the concentration for half-maximal inhibition (IC50) was 3.19 µM. The “histology of ear pinna” value in data set [7] (mouse, in vivo) is recorded as “No histological changes”. For the same compound, the “malondialdehyde (MDA), marker” value in data set [8] is “slightly increased”.
For the compound `O=[N+]([O-])c1ccc(Cl)c([N+](=O)[O-])c1` [DNCB, dinitrochlorobenzene], in data set [4] (setting [14]), the “IL1α in treated ear tissue” value is recorded as “significant increase”, the “IL1β in treated ear tissue” value is “significant increase” and the “IL6 in treated ear tissue” value is listed as “significant increase”. Moreover, the “histology of ear pinna” value in data set [7] (setting [15]) was “contact dermatitis”.
As to `CC(=O)N1CCN(c2ccc(OCC3COC(Cn4ccnc4)(c4ccc(Cl)cc4Cl)O3)cc2)CC1` (stereo not drawn) [KTZ, cis-1-acetyl-4-[4-[[(2RS,4SR)-2-(2,4-dichlorophenyl)-2-(1H-imidazol-1-ylmethyl)-1,3-dioxolan-4-yl]methoxy]phenyl]piperazine], the “epicutaneous sensitization, ear thickness” value in data set [9] is listed as “did not induce any allergic reactions”. In addition, the “malondialdehyde (MDA), marker” value in data set [1] was “decreased”. Also, in [10], the “detection in plasma over time” value was “not detected after 6 h”. In data set [11], this compound showed an AUC(0-t) of 3820 ng·h/mL. Also, the concentration in data set [11] (Cmax, Wistar rats, one oral dose 20 mg kg^−1 bw, serum) peaked (Cmax) at 5820 ± 700 ng/mL. Also, in data set [12], the plasma concentration is given as 5.85 µM. Also, in [13], the liver histopathology result is “normal hepatic architecture”. Also, in data set [4] (setting [14]), the “IL1α in treated ear tissue” value is on record as “decreased”, the “IL1β in treated ear tissue” value is “decreased” and the “IL6 in treated ear tissue” value is on record as “increased”. In addition, in [5], the “cell viability (effect in words)” value is recorded as “decreased” and inhibition was half-maximal at 7.45 µM (IC50). In [6], the “cell viability (effect in words)” value was “decreased” and the concentration for half-maximal inhibition (IC50) was 7.48 µM. Besides, in [7] (setting [15]), the “histology of ear pinna” value is on record as “No histological changes”. Also, the “malondialdehyde (MDA), marker” value in [8] was “decreased”.
